In paper PMC3852661, “Structural basis of SUFU–GLI interaction in human Hedgehog signalling regulation” (Acta Crystallographica Section D: Biological Crystallography, 2013):

Assays:
[1] = molecular target: T1, MBP-SUFU-Δ (Homo sapiens, UniProt Q9UMX1, DEL285-359/L360P/P281R/P282G/R280S/S279P); assay: SYPRO Orange initial fluorescence upon peptide addition, MBP-SUFU-Δ; assay type: binding; conditions: excitation 470 nm, emission 570 nm, pH 7.0
T1 construct: subcloning different SUFU32–483 variants into vector pLJMBP4c; His tag (as in MBP-SUFU-FL; purified on HisTrap) (C); made in house; host or cells: Escherichia coli JM109 (DE3)
Method: (§1) Recombinant MBP-SUFU proteins were diluted to 2.6 µM in 50 mM Na HEPES pH 7.0, 50 mM NaCl, 5 mM β-mercaptoethanol; the peptides GLI1p and GLI1p-SH (Supplementary Table S1b), synthesized by Dr W. Mawby (University of Bristol), were dissolved in the same buffer. Proteins were spun at 14 000g for 20 min at 4°C before adding SYPRO Orange (Molecular Probes) to a final concentration of 6×. Reaction volumes of 25 µl were prepared in 96-well PCR plates with 2.2 µM protein/SYPRO Orange solution and, where applicable, 44 µM peptide. Plates were sealed with optical tape, heated from 20 to 90°C in 12 s 0.2°C steps in an iCycler and fluorescence was detected using an excitation wavelength of 470 nm and an emission wavelength of 570 nm.
(§2) Recombinant MBP-SUFU constructs were diluted to 2.5 µM in 50 mM Na HEPES pH 7.0, 50 mM NaCl, 5 mM β-mercaptoethanol and spun at 14 000g for 20 min at 4°C before the addition of SYPRO Orange to a final 5× concentration of dye. The fluorescence of 100 µl samples was measured in black 96-well plates (Nunc) using excitation at λ = 470 nm and emission at λ = 570 nm. GLI1p or GLI1p-SH peptides prepared in the same buffer as above were added in the given ratios and mixed before a second reading was taken. Readings post-peptide addition were divided by the corresponding pre-peptide addition measurements to obtain normalized results. […]

[2] = tested on: MBP-SUFU-SH; assay: SYPRO Orange initial fluorescence upon peptide addition, MBP-SUFU-SH; assay type: binding, human; conditions: excitation 470 nm, emission 570 nm, pH 7.0
Method: as §1, §2

[3] = tested on: MBP-SUFU-FL, mutation of Glu376; assay: Microscale thermophoresis, MBP-SUFU-FL mutated at Glu376; assay type: binding, human; conditions: mutation of Glu376 in MBP-SUFU-FL, data not shown
Method: A 5-FAM-labelled peptide (FAM-GLI1p) comprising residues 115–131 of GLI1 (Supplementary Table S1b) was synthesized by Pepceuticals Ltd. A titration series of each recombinant protein was prepared by serial 1:1 dilutions in MST buffer (50 mM Tris–HCl pH 7.6, 150 mM NaCl, 10 mM MgCl2, 0.05% Tween-20) and mixed in a 1:1 ratio with FAM-GLI1p to give final concentrations of 50 nM FAM-GLI1p with MBP-SUFU constructs in the ranges 14.2–29 070 and 54–110 500 nM. Reactions were aspirated into glass capillaries and the thermophoretic movement of FAM-GLI1p was monitored using a Monolith NT.115 instrument (NanoTemper Technologies; Wienken et al., 2010[▶]), with a laser on for 30 s and off for 5 s and a laser power/voltage of 20% for MBP-SUFU-FL and the MBP-SUFU-FL mutants, 40% for MBP-SUFU-Δ and 80% for MBP-SUFU-SH. Fluorescence was measured before laser heating (F Cold) and after 30 s of laser-on time (F Hot). The normalized fluorescence F Hot/F Cold reflects the concentration ratio of labelled molecules. F Hot/F Cold was plotted directly and multiplied by a factor of […], yielding a relative change in fluorescence per thousand. K d was calculated from three independent thermophoresis measurements using NanoTemper software (NanoTemper Technologies). […]

MBP-SUFU-SH, sequence (Q9UMX1 32-278 limits assumed): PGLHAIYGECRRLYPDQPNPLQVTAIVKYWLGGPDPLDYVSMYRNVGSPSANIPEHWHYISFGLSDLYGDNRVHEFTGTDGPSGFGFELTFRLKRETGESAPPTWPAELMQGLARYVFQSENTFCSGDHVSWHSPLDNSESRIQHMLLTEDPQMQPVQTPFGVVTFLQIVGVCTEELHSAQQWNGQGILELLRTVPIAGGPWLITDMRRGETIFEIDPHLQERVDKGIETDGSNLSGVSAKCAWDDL
MBP-SUFU-SH, sequence (Q9UMX1 361-483 limits assumed): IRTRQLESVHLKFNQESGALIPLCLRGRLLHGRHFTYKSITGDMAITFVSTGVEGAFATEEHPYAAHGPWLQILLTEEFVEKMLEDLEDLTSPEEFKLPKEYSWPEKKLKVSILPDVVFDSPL
T1 sequence (Q9UMX1 with tags, fused parts or gaps S279P/R280S/P281R/P282G/DEL285-359/L360P limits assumed, other chains not shown): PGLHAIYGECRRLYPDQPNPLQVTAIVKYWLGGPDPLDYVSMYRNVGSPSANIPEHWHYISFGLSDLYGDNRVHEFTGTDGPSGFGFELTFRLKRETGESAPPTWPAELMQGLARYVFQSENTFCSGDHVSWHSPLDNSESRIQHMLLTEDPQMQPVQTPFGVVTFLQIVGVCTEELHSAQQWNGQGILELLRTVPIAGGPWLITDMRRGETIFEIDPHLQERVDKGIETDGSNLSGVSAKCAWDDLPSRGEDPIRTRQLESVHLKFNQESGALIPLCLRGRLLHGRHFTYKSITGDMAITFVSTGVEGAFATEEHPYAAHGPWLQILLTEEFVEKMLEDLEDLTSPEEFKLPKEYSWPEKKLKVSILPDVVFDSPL

Substance: GLI1p: human GLI1-derived peptide; residues 115–131, containing the highly conserved SYGH motif (TSPGGSYGHLSIGTMSP)
- initial fluorescence upon addition of GLI1p [1]: no such effect
- initial fluorescence upon addition of GLI1p [2]: no such effect
- detectable binding [3]: abolished detectable binding
